Measurements: ChEMBL document CHEMBL3085700 (J Med Chem, 2013)
Active and inactive are the calls of the source. The rule behind the calls is not given here.

Key:
[1] = target: T1, Fatty-acid amide hydrolase 1 (Homo sapiens) (UniProt O00519); experiment: Inhibition of human recombinant FAAH overexpressed in African green monkey COS7 cells using [3H]-anandamide as substrate at 10 to 300 uM preincubated for 10 to 60 mins by liquid scintillation counting analysis; format: cell-based; conditions: COS-7
T1 sequence (whole entry): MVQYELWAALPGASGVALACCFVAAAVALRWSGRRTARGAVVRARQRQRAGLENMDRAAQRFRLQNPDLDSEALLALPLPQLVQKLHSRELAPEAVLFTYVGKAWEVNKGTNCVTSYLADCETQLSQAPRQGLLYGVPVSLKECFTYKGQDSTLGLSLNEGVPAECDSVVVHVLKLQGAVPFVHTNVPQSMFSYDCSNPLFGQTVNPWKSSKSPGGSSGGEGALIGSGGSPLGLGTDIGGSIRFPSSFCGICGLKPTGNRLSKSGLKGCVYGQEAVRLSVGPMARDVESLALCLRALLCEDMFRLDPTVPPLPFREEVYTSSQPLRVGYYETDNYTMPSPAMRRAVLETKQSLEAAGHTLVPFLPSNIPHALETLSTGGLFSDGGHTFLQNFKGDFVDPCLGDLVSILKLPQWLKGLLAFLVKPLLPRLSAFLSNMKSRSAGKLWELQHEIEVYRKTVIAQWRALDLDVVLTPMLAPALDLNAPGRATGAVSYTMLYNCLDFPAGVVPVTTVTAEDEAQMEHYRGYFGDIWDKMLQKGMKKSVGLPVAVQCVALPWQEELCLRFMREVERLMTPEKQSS

[2] = target: T2, Monoglyceride lipase (Homo sapiens) (UniProt Q99685); experiment: Inhibition of human recombinant MAGL overexpressed in HEK cells using 2-AG as substrate at 10 uM preincubated for 10 mins before substrate addition measured after 10 mins by HPLC analysis relative to control; format: cell-based; conditions: HEK293
T2 sequence (whole entry): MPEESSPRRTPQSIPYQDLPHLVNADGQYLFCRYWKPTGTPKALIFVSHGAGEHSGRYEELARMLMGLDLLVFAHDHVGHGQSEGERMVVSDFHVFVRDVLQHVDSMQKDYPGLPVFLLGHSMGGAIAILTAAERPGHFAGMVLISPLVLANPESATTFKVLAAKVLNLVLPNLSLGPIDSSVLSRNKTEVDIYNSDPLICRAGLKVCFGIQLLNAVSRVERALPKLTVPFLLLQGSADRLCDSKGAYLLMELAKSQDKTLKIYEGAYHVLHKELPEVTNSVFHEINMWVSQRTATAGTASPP

[3] = target: Cannabinoid receptor 1 (Rattus norvegicus) (UniProt P20272); experiment: Agonist activity at CB1 receptor in rat cerebellar membranes up to 10 uM incubated for 10 mins prior to testing by [35S]GTPgammaS binding assay; format: functional, cell membranes; conditions: Cerebellum, Membrane
[4] = target: T3, Lysophosphatidylserine lipase ABHD12 (Mus musculus) (UniProt Q99LR1); experiment: Inhibition of TAMRA-FP-labeled ABHD12 in mouse brain membrane at 10 uM after 1 hr by fluorescent gel scanning assay; format: cell membranes
T3 sequence (whole entry): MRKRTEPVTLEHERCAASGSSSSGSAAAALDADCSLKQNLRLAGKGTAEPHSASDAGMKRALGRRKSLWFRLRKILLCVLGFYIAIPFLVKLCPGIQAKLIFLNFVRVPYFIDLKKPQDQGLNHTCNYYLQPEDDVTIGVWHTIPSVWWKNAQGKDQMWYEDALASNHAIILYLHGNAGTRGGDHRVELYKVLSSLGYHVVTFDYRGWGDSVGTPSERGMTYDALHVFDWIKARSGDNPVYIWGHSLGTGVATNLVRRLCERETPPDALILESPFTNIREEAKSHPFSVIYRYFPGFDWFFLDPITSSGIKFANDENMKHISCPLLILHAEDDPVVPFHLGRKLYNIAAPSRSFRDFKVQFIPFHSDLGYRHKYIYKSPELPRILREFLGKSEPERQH

[5] = target: T4, Monoacylglycerol lipase ABHD6 (Homo sapiens) (UniProt Q9BV23); experiment: Inhibition of human ABHD6 overexpressed in HEK293 cells assessed as 2-AG hydrolysis at 1 uM by fluorescent glycerol assay; format: cell-based
T4 sequence (whole entry): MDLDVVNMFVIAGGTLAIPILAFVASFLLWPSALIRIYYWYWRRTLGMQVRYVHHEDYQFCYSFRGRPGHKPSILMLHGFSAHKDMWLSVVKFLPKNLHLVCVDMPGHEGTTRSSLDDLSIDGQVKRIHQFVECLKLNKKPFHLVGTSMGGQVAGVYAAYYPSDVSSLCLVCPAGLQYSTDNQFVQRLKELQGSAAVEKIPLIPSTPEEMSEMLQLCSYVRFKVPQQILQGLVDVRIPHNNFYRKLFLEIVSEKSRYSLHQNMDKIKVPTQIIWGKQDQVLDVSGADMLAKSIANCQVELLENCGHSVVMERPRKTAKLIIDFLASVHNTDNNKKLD

[6] = target: T1, Fatty-acid amide hydrolase 1 (Homo sapiens); experiment: Inhibition of human recombinant FAAH overexpressed in African green monkey COS7 cells using [3H]-anandamide as substrate at 10 to 100 uM preincubated for 10 to 60 mins by liquid scintillation counting analysis; format: cell-based; conditions: COS-7
[7] = target: T5, Prostaglandin G/H synthase 2 (Homo sapiens) (UniProt P35354); experiment: Inhibition of human recombinant COX-2 using arachidonic acid as substrate assessed as oxygen consumption at 10 uM measured within 10 to 50 secs relative to control
T5 sequence (whole entry): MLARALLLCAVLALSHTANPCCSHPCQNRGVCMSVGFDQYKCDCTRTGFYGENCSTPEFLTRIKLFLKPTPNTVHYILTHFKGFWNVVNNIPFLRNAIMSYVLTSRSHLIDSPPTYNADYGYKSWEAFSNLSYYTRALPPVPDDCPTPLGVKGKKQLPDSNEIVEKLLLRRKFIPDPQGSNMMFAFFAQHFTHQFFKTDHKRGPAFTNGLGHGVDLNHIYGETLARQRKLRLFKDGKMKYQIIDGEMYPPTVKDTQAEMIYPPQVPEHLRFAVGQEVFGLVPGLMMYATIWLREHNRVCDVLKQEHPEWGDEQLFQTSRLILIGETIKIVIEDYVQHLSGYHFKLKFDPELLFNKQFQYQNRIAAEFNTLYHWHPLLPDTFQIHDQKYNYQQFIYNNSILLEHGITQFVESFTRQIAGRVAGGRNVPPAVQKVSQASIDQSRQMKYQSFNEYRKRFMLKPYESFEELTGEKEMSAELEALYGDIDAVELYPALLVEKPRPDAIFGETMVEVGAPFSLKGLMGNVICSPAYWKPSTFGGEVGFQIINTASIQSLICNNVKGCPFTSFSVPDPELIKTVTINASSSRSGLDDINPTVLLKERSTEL

[8] = organism: Homo sapiens; experiment: Selectivity ratio for human recombinant FAAH over human recombinant MAGL

Chain of Cannabinoid receptor 1 (Rattus norvegicus) (P20272 whole entry): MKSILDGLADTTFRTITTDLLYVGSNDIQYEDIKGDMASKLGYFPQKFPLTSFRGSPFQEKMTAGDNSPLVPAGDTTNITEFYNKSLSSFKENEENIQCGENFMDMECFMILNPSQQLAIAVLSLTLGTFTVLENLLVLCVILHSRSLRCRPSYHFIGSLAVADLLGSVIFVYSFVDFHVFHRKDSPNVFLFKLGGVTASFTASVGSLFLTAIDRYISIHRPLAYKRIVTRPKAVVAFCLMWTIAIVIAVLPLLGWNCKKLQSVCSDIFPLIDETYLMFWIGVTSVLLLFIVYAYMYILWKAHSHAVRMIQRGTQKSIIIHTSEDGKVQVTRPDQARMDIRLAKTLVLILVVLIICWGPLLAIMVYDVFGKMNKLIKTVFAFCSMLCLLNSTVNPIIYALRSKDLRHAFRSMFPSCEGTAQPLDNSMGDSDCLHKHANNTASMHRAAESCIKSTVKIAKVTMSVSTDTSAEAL

COc1nn([C@@H](C)c2ccc(CC(C)C)cc2)c(=O)o1
inhibition [1]: Active
inhibition [2]: 16%
Activity [3]: inactive
inhibition [4]: inactive
inhibition [5]: inactive
inhibition [6]: Active
inhibition [7]: 20%
Selectivity ratio [8]: > 900
